US20230292746A1, “MIXTURES AND COMPOSITIONS COMPRISING 5-FLUORO-4-IMINO-3- METHYL-1-TOSYL-3,4-DIHYDROPYRIMIDIN-2-ONE, AND METHODS OF USE THEREOF” (Adama Makhteshim Ltd., priority 2020, published 2023)
Where “and” joins values, the source holds several entries; their conditions need not be identical. Equal entries are not always repeated.

Columns and labels:
[1] = Water content of composition; format: physicochemical; settings: non-aqueous composition
Text: As used herein, the term “water content” when used in connection with a composition, a mixture, or a component in the composition or mixture refers to the amount of free water in the composition, mixture or component of the composition or mixture and the water molecules chemically bound to another compound, such as water molecules in a hydrate.

[2] = Storage stability: concentration / degradation of compound of Formula I in composition; format: physicochemical; settings: for 2W/54° C. analysis (% of 10° C.): non-aqueous composition, 2 weeks at 54° C.
Text: As used herein, the term “stable” when used in connection with chemical stability, e.g. chemically stable, means that the composition meets the chemical stability standards set forth by the Food and Agriculture Organization of the United Nations (FAO) in the Manual on Development and Use of FAO and WHO Specification for Pesticides (First Edition—Third Revision) (the “FAO/WHO Manual”) (available at http://www.fao.org/agriculture/crops/thematic-sitemap/theme/pests/jmps/manual/en/), the entire content of which is hereby incorporate by reference into the subject application. […] The amount of degradation permitted before the degradation is considered to be significant depends on the concentration of the active ingredients in the composition.
The physical and chemical stability of composition of Example 1 were tested under various conditions including CIPAC conditions.

[3] = test system: Zymoseptoria tritici strain Mg Tri-R6; assay: Fungicidal efficacy on treated wheat leaves inoculated with Z. tritici (AUDPC, intensity of infection); format: in vivo; settings: 21 dpi
Protocol: Wheat crop (Winter wheat plants cv. Alixan (Limagrain) at the BBCH 12 growth stage) was treated with compositions comprising the compound of Formula I and adjuvants in different concentrations as built-in composition and/or as tank mix application.
All the tested compositions and mixtures were prepared in a volume of water corresponding to 200 L/ha and used 3 hours after preparation.
The SC composition of Example 1 was mixed with Trycol® (0.2 or 0.4 L per hectare) or Silwet (0.01 L per hectare) which were added as tank mix in 200 L volume of water.
The compositions and mixtures were applied with a hand sprayer at operating pressure of 2 bars. Three replicates (pots) of 6 wheat plants each were used for each condition tested.
After treatment, wheat plants were left to dry at room temperature for 1 hour and then incubated in a climatic chamber: Temperature of 24° C. day/18° C. night—Photoperiod of 16 h light/8 h dark and a Relative Humidity of 65%.
Fragments of the first leaf are cut and transferred in Petri dish containing adapted water agar (6 leaf fragments per Petri dish). Fragments are inoculated with a calibrated pycnospores suspension of Z. tritici strain Mg Tri-R6. […]
After incubation time of 21 days, the intensity of the infection, which is the surface of colonized leaf by Z. tritici strain, is assessed (quantitative criteria). The fungicidal efficacy on each composition is then determined in percent of the untreated control. […]
Disease assessments were carried out 21 days post inoculation (dpi) by measuring the length of the necrosis of the leaf fragment. The intensity of infection was then determined in percent of the total length of the leaf fragment.
The efficacy was calculated based on the Area Under the Disease Progress Curve (AUDPC) which is a quantitative measure of disease intensity over time. […]
The fungicide efficacies were determined from the AUDPC values and expressed in percent of the untreated control.

[4] = 20% Hydrate and 80% Form I Polymorph
[5] = 45% Hydrate, and 55% Form I Polymorph

Row | SMILES | % Water Content [1, 4] | % Water Content [1, 5] [%] | 2W/54° C. analysis (% of 10° C.) [2, 4] | 2W/54° C. analysis (% of 10° C.) [2, 5] | fungicidal efficacy compared to application without adjuvant ([3]; SC composition tank mixed with Silwet® (0.01 L/ha), wheat cv. Alixan) | fungicidal efficacy compared to application without adjuvant ([3]; SC composition tank mixed with Trycol® (0.2 or 0.4 L/ha), wheat cv. Alixan) | fungicidal efficacy compared to application without adjuvant ([3]; two adjuvants: Silwet® or Agnique® BP 420 with PVP or VP/VA, 10 g a.i./ha) | degradation of the compound of Formula I ([2]; 8 weeks of storage at 40° C., with Attagel 50 (0.5%) and Bentone SD-1 (0.5%)) [%] | degradation of the compound of Formula I ([2]; 8 weeks of storage at 40° C., without Attagel 50 and Bentone SD-1) | degradation of the compound of Formula I ([2]; non-aqueous composition with water scavenger) [%] | degradation of the compound of Formula I ([2]; non-aqueous composition without water scavenger)
1 | Cc1ccc(S(=O)(=O)n2cc(F)c(=N)n(C)c2=O)cc1 [Hydrate I, 5-fluoro-4-imino-3-methyl-1-tosyl-3,4-dihydropyrimidin-2(1H)-one] | 0.24% and 0.22% | 0.35 | 88.5 % of 10 °C and 88.7 % of 10 °C | 89.3 % of 10 °C and 88.6 % of 10 °C | – | – | – | – | – | – | –
2 | Cc1ccc(S(=O)(=O)n2cc(F)c(=N)n(C)c2=O)cc1 [compound of Formula I, 5-fluoro-4-imino-3-methyl-1-tosyl-3,4-dihydropyrimidin-2(1H)-one] | – | – | – | – | increased the efficacy and the effective fungicidal activity | increased the efficacy and the effective fungicidal activity | increased the efficacy and the effective fungicidal activity | 4 | 7-8% | ≤ 5 | 5-10%
